Results from patent US20090048278A1, “Novel Quinazoline-2,4-Diamine Derivatives and Their Use as Modulators of Small-Conductance Calcium-Activated Potassium Channels” (priority 2005, published 2009).
Where a name gives a salt, the structure may show the parent alone.

Tested on: not given
Assay: not given
Conditions: not given

Compared with Fc1ccc(CNc2nc(NCc3ccc(F)c(F)c3)c3ccccc3n2)cc1F (as salt: HCl) [Example 2, N^2,N^4-Bis(3,4-difluorobenzyl)quinazoline-2,4-diamine], NCc1cccc(CNc2nc(NCc3ccc(F)c(F)c3)c3ccccc3n2)c1 [Example 3, N^2-(3-Aminomethylbenzyl)-N^4-(3,4-difluorobenzyl)quinazoline-2,4-diamine] is lower in melting point: 275 to 276 °C for the first, 148 to 149 °C for the second.

First: Clc1ccc(CNc2nc(NC3CCCc4ccccc43)c3ccccc3n2)cc1 (centres unmarked) (as salt: HCl) [Example 11, N^2-(4-Chlorobenzyl)-N^4-(1,2,3,4-tetrahydronaphthalen-1-yl)quinazoline-2,4-diamine]
Second: Clc1ccc(CNc2nc(N3CCCCC3c3ccccc3)nc3ccccc23)cc1 (centres unmarked) [Example 6, (4-Chlorobenzyl)-[2-(2-phenylpiperidin-1-yl)quinazolin-4-yl]amine]
The melting point of the first is higher: 166 to 167 °C for the first, 86 to 87 °C for the second.

First: Clc1ccc(CNc2nc(NCc3ccc(Cl)cc3)c3ccccc3n2)cc1 (as salt: HCl) [Example 1, N^2,N^4-Bis(4-chlorobenzyl)quinazoline-2,4-diamine]
Second: CN(C)c1ccc(CNc2nc(NCc3ccc(F)c(F)c3)nc3ccccc23)cc1 [Example 5, N^2-(3,4-Difluorobenzyl)-N^4-(4-dimethylaminobenzyl)quinazoline-2,4-diamine]
The melting point of the first is higher: 263 to 264 °C for the first, 59 to 60 °C for the second.

Molecule OCCN(Cc1ccccc1)c1nc(NCc2ccc(Cl)cc2)c2ccccc2n1 [Example 7, N^2-Benzyl-N^4-(4-chlorobenzyl)-N^2-(hydroxyethyl)quinazoline-2,4-diamine] has a melting point of 188 to 190.5 °C.

Target: T1, hSK3 channels (Homo sapiens, UniProt Q9UGI6)
T1 construct: expressed in transfected cells; host or cells: HEK293
Assay: Whole-cell patch-clamp recording of SK3 current in HEK293 cells expressing hSK3 channels
Format: cell-based
Conditions: current at −75 mV, free Ca2+ 0.3-0.4 μM, room temperature, read-out: Ki value (concentration required for decreasing the baseline current to 50% of the initial current)
Protocol: The ionic current through small-conductance Ca^2+-activated K^+ channels (SK channels, subtype 3) was recorded using the whole-cell configuration of the patch-clamp technique.
HEK293 tissue culture cells expressing hSK3 channels were grown in DMEM (Dulbecco's Modified Eagle Medium) supplemented with 10% FCS (foetal calf serum) at 37° C. in 5% CO2. At 60-80% confluency, cells were harvested by trypsin treatment and seeded on cover slips.
Cells plated on coverslips are placed in a 15 μl perfusion chamber (flowrate ˜1 ml/min) mounted on an inverted microscope placed on a vibration-free table in a grounded Faraday cage. The experiments were performed at room temperature (20-22° C.). […] Data were stored directly on the hard-disk and analysed by IGOR software (Wavemetrics, Lake Oswega, Oreg., USA).
The whole-cell configuration of the patch-clamp technique was applied. […] Cell capacitance was electronically compensated and the resistance between the pipette and the cell interior (the series resistance, R^5) was measured and compensated for. […]
The intracellular (pipette) solution contained: 154 mM KCl, 10 mM HEPES, 10 mM EGTA. Concentrations of CaCl2 and MgCl2 needed to obtain the desired free concentrations of Ca^2+ (0.3-0.4 μM, Mg^2+ always 1 mM) were calculated by EqCal software (Cambridge, UK) and added. […]

In the case of N#CCCN(Cc1ccccc1)c1nc(NCc2ccc(Cl)cc2)c2ccccc2n1 [Example 8, N^2-Benzyl-N^4-(4-chlorobenzyl)-N^2-(cyanoethyl)quinazoline-2,4-diamine], the IC50 is reported as 300 nM.
